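Cultured in 96-well plates, cells were exposed to test compound for 48 hours across five concentrations. GI50: concentration for 50% inhibition of growth.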 Calls of active or inactive are those of the source. Rule as the data show it: active = GI50 up to about 1.1 µM and inactive = higher.

Results on three compounds are retold here after ChEMBL document CHEMBL1201862, “PubChem BioAssay data set” (2004).

Among the test systems are MCF7; UACC-257; MOLT-4; SK-MEL-5; HT-29; Malme-3M; COLO 205; KM12; MDA-MB-231; HCT-116; RXF 393; OVCAR-3; HOP-62; NCI-H522; CCRF-CEM; CAKI-1; HCT-15; OVCAR-4; NCI-H23; LOX IMVI.
Holding throughout (experiment): NCI tumour cell line growth inhibition, 48 h

As to `S=C1Cc2c(-c3ccccc3)cc(-c3ccc(Cl)cc3)nc2-c2ccccc2N1`, the GI50 in the assay with MCF7 is 15.1 µM (inactive); in the assay with UACC-257 it was 4.7 µM (inactive); with MOLT-4 it was 3.79 µM (inactive); with SK-MEL-5, 3.47 µM (inactive); in the assay with HT-29, 2.65 µM (inactive); with Malme-3M it was 3.33 µM (inactive). Besides, the GI50 with COLO 205 was 5.57 µM (inactive); in the assay on KM12, 8.75 µM (inactive); in the assay on MDA-MB-231 it was 1.53 µM (inactive); in the assay on HCT-116, 1.85 µM (inactive); with RXF 393 it was 3.06 µM (inactive); in the assay with OVCAR-3, 3.07 µM (inactive). The GI50 is 1.39 µM (inactive) with HOP-62; 2.06 µM (inactive) with NCI-H522; 3.08 µM (inactive) in the assay with CCRF-CEM; 1.36 µM (inactive) in the assay on CAKI-1; 6.84 µM with HCT-15; 0.42 µM (active) in the assay on OVCAR-4. The GI50 was 2.88 µM (inactive) in the assay with NCI-H23 and 3.41 µM (inactive) with LOX IMVI.
On to `Cc1ccc(C2SCc3nc4ccccc4n32)cc1` (stereo not given), for which the GI50 in the assay on MCF7 is 4.68 µM (inactive); in the assay with UACC-257, 4.79 µM (inactive); with MOLT-4 it was 2.96 µM (inactive); in the assay on SK-MEL-5, 1.53 µM (inactive); with HT-29, 2.47 µM (inactive); in the assay on Malme-3M it was 4.04 µM (inactive). Also, the GI50 in the assay on COLO 205 was 1.36 µM (inactive); in the assay with KM12, 1.51 µM (inactive); with MDA-MB-231, 10.6 µM (inactive); with HCT-116, 3.11 µM (inactive); in the assay on RXF 393, 1.98 µM (inactive); in the assay with OVCAR-3, 4.72 µM (inactive). For the same compound, the GI50 with HOP-62 is 3.44 µM (inactive); with NCI-H522, 4.74 µM (inactive); with CCRF-CEM it was 2.79 µM (inactive); in the assay with CAKI-1, 1.52 µM (inactive); in the assay on HCT-15, 1.85 µM; in the assay on OVCAR-4 it was 8.77 µM (inactive). For the same compound, the GI50 was 2.72 µM (inactive) in the assay on NCI-H23 and 4.47 µM (inactive) in the assay on LOX IMVI.
Turning to `Cc1cc(=O)oc2cc(OC(=O)Nc3ccc(Cl)c(Cl)c3)ccc12`, the GI50 in the assay on MCF7 is 25.6 µM (inactive); in the assay with UACC-257 it was 30.8 µM (inactive); in the assay on MOLT-4 it was 17.1 µM (inactive); in the assay with SK-MEL-5, 16.1 µM (inactive); in the assay on HT-29, 25.2 µM (inactive); in the assay with Malme-3M, 23.1 µM (inactive). For the same compound, the GI50 is 32.4 µM (inactive) in the assay with COLO 205; 27.1 µM (inactive) in the assay with KM12; 26 µM (inactive) in the assay with MDA-MB-231; 15.5 µM (inactive) in the assay with HCT-116; 14.3 µM (inactive) in the assay with RXF 393; 13 µM (inactive) with OVCAR-3. Also, the GI50 is 24.7 µM (inactive) in the assay with HOP-62; 17.3 µM (inactive) in the assay with NCI-H522; 20.7 µM (inactive) with CCRF-CEM; 38.3 µM (inactive) with CAKI-1; 20.9 µM with HCT-15; 41.3 µM (inactive) with OVCAR-4. Further, the GI50 with NCI-H23 is 20.7 µM (inactive); in the assay on LOX IMVI it was 18.9 µM (inactive).
